# Measured values from ChEMBL document CHEMBL2057192, “Small molecular weight PEGylation of diosgenin in an in vivo animal study for diabetic auditory impairment treatment” (Bioorg Med Chem Lett, 2012).
# Activity calls are given as the source filed them. The rule behind the calls is not given here.
# Columns and labels:
# Mus musculus [1] = assay: Antidiabetic activity in streptozotocin-induced diabetic ICR mouse assessed as change in body weight at 10 mg/kg, po administered QD measured 1 week after STZ challenge (reference value: 33.25 +/- 0.75 g); assay type: functional
# Mus musculus [2] = assay: Antidiabetic activity in streptozotocin-induced diabetic ICR mouse assessed as change in body weight at 10 mg/kg, po administered QD measured 9 weeks after STZ challenge (reference value: 34.15 +/- 1.16 g); assay type: functional
# Mus musculus [3] = assay: Antidiabetic activity in streptozotocin-induced diabetic ICR mouse assessed as change in body weight at 20 mg/kg, po administered QD measured 1 week after STZ challenge (reference value: 33.25 +/- 0.75 g); assay type: functional
# Mus musculus [4] = assay: Antidiabetic activity in streptozotocin-induced diabetic ICR mouse assessed as change in body weight at 20 mg/kg, po administered QD measured 9 weeks after STZ challenge (reference value: 34.15 +/- 1.16 g); assay type: functional
# Mus musculus [5] = assay: Antidiabetic activity in streptozotocin-induced diabetic ICR mouse assessed as change in blood glucose level at 10 mg/kg, po administered QD measured 1 week after STZ challenge (reference value: 516.33 +/- 46.73 mg/dl); assay type: functional
# Mus musculus [6] = assay: Antidiabetic activity in streptozotocin-induced diabetic ICR mouse assessed as change in blood glucose level at 10 mg/kg, po administered QD measured 9 weeks after STZ challenge (reference value: 529.90 +/- 49.17 mg/dl); assay type: functional
# Mus musculus [7] = assay: Antidiabetic activity in streptozotocin-induced diabetic ICR mouse assessed as change in blood glucose level at 20 mg/kg, po administered QD measured 1 week after STZ challenge (reference value: 516.33 +/- 46.73 mg/dl); assay type: functional
# Mus musculus [8] = assay: Antidiabetic activity in streptozotocin-induced diabetic ICR mouse assessed as change in blood glucose level at 20 mg/kg, po administered QD measured 9 weeks after STZ challenge (reference value: 529.90 +/- 49.17 mg/dl); assay type: functional
# Mus musculus [9] = assay: Protective activity against hearing loss in streptozotocin-induced diabetic ICR mouse using 4 KHz tone bursts at 10 mg/kg, po administered QD measured after 8 weeks by auditory brainstem response test; assay type: functional, organism-based; set-up: dose 10 mg/kg
# Mus musculus [10] = assay: Protective activity against hearing loss in streptozotocin-induced diabetic ICR mouse using 8 KHz tone bursts at 10 mg/kg, po administered QD measured after 8 weeks by auditory brainstem response test; assay type: functional, organism-based; set-up: dose 10 mg/kg
# Mus musculus [11] = assay: Protective activity against hearing loss in streptozotocin-induced diabetic ICR mouse using 4 KHz tone bursts at 20 mg/kg, po administered QD measured after 8 weeks by auditory brainstem response test; assay type: functional, organism-based; set-up: dose 20 mg/kg
# Mus musculus [12] = assay: Protective activity against hearing loss in streptozotocin-induced diabetic ICR mouse using 8 KHz tone bursts at 20 mg/kg, po administered QD measured after 8 weeks by auditory brainstem response test; assay type: functional, organism-based; set-up: dose 20 mg/kg
# Mus musculus [13] = assay: Protective activity against hearing loss in streptozotocin-induced diabetic ICR mouse assessed as decrease in positive A peak latency at 10 mg/kg, po administered QD measured after 8 weeks by auditory middle latency response test; assay type: functional, organism-based; set-up: dose 10 mg/kg
# Mus musculus [14] = assay: Protective activity against hearing loss in streptozotocin-induced diabetic ICR mouse assessed as decrease in positive A peak latency at 20 mg/kg, po administered QD measured after 8 weeks by auditory middle latency response test; assay type: functional, organism-based; set-up: dose 20 mg/kg
# Mus musculus [15] = assay: Protective activity against hearing loss in streptozotocin-induced diabetic ICR mouse assessed as increase in negative A peak-positive A peak amplitude at 10 mg/kg, po administered QD measured after 8 weeks by auditory middle latency response test; assay type: functional, organism-based; set-up: dose 10 mg/kg
# Mus musculus [16] = assay: Protective activity against hearing loss in streptozotocin-induced diabetic ICR mouse assessed as increase in negative A peak-positive A peak amplitude at 20 mg/kg, po administered QD measured after 8 weeks by auditory middle latency response test; assay type: functional, organism-based; set-up: dose 20 mg/kg
# Mus musculus [17] = assay: Protective activity against hearing loss in streptozotocin-induced diabetic ICR mouse assessed as increase in signal intensity-to-noise ratio at 10 mg/kg, po administered QD measured after 8 weeks by transient evoked otoacoustic emission test; assay type: functional, organism-based; set-up: dose 10 mg/kg
# Mus musculus [18] = assay: Protective activity against hearing loss in streptozotocin-induced diabetic ICR mouse assessed as increase in signal intensity-to-noise ratio at 20 mg/kg, po administered QD measured after 8 weeks by transient evoked otoacoustic emission test; assay type: functional, organism-based; set-up: dose 20 mg/kg
# [19] = Oral bioavailability in rat; assay type: ADME, organism-based; conditions: in vivo
# [20] = Lipophilicity, log P of the compound; assay type: physicochemical; conditions: octanol/water
logP [20],SMILES,Activity (Mus musculus [1]) [g],Activity (Mus musculus [2]) [g],Activity (Mus musculus [3]) [g],Activity (Mus musculus [4]) [g],Activity (Mus musculus [5]),Activity (Mus musculus [6]),Activity (Mus musculus [7]) [mg/dL],Activity (Mus musculus [8]) [mg/dL],Activity (Mus musculus [9]),Activity (Mus musculus [10]),Activity (Mus musculus [11]),Activity (Mus musculus [12]),Activity (Mus musculus [13]),Activity (Mus musculus [14]),Activity (Mus musculus [15]),Activity (Mus musculus [16]),Activity (Mus musculus [17]),Activity (Mus musculus [18]),bioavailability [19] [%]
–,COCCOCCOCCOCCO[C@H]1CC[C@@]2(C)C(=CC[C@H]3[C@@H]4C[C@@H]5O[C@]6(CC[C@@H](C)CO6)[C@@H](C)[C@@H]5[C@@]4(C)CC[C@@H]32)C1,30.5,33.72,32.55,37.6,522.18 mg/dL,565.56 mg/dL,582.8,501.6,Active,Active,Active,Active,Active,Active,Active,Active,Active,Active,–
–,C[C@@H]1CC[C@@]2(OC1)O[C@H]1C[C@H]3[C@@H]4CC=C5C[C@@H](O[C@@H]6O[C@H](CO)[C@@H](O[C@@H]7O[C@@H](C)[C@H](O)[C@@H](O)[C@H]7O)[C@H](O)[C@H]6O[C@@H]6O[C@@H](C)[C@H](O)[C@@H](O)[C@H]6O)CC[C@]5(C)[C@H]4CC[C@]3(C)[C@H]1[C@@H]2C [DIOSCIN],–,–,–,–,–,–,–,–,–,–,–,–,–,–,–,–,–,–,0.2
5.7,C[C@@H]1CC[C@@]2(OC1)O[C@H]1C[C@H]3[C@@H]4CC=C5C[C@@H](O)CC[C@]5(C)[C@H]4CC[C@]3(C)[C@H]1[C@@H]2C [DISOGENIN],32.83,38.33,33.67,38.67,>=600 mg/dl,>=600 mg/dl,574.17,598,–,–,–,–,–,–,–,–,–,–,–
–,C[C@@H]1CC[C@@]2(OC1)O[C@H]1C[C@H]3[C@@H]4CC=C5C[C@@H](O[C@@H]6O[C@H](CO)[C@@H](O)[C@H](O)[C@H]6O)CC[C@]5(C)[C@H]4CC[C@]3(C)[C@H]1[C@@H]2C [DISOGLUSIDE],33.17,33.39,31.58,34.92,583.55 mg/dL,>=600 mg/dl,571.75,592.33,–,–,Active,Active,–,Active,–,Active,–,–,–
